Activity calls are given as the source filed them. The calls are words filed in the database; no cut-off is given here.
Columns and labels:
[1] = molecular target: T1, Transcriptional activator protein LuxR (Aliivibrio fischeri) (UniProt P12746); experiment: Agonist activity at Vibrio fischeri LuxR expressed in Escherichia coli NM522 containing Photorhabdus luminescens LuxCDABE assessed as induction of quorum sensing activation mediated bioluminescence at 0.1 to 200 uM after 4 to 5 hrs by bioluminescence assay; assay type: functional
T1 sequence (whole entry): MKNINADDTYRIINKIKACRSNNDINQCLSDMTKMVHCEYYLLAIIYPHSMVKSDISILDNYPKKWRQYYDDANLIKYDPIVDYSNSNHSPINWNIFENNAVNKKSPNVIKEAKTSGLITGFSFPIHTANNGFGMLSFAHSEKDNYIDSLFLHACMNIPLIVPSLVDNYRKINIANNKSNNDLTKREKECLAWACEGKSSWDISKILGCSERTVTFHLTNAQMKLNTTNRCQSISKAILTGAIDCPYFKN

[2] = molecular target: T2, Transcriptional activator protein LuxR (Aliivibrio fischeri, UniProt P12746); experiment: Antagonist activity at Vibrio fischeri LuxR expressed in Escherichia coli NM522 containing Photorhabdus luminescens LuxCDABE assessed as inhibition of 3-oxo-C6-HSL-induced quorum sensing activation mediated bioluminescence after 4 to 5 hrs by bioluminescence assay; assay type: functional
T2 sequence (P12746 whole entry): T1 sequence (whole entry)

SMILES | Activity [1] | IC50 [2] [µM]
CCCCN(C)C(=O)C1CCOC1=O (stereo not drawn) | inactive | 
CCCCCCCCCCNC(=O)C1CCOC1=O (stereo not drawn) | inactive | 75
CCCCCNC(=O)C1CCCC1O (mixture of isomers) [listing 1 of 2 here] |  | 200
CCCCCCNC(=O)C1CCOC1=O (stereo not drawn) | inactive | 54
CCCCCCCCNC(=O)C1CCOC1=O (stereo not drawn) | inactive | 52
CCCCCNC(=O)C1CCCC1O (mixture of isomers) [listing 2 of 2 here] | inactive | 
CCCCCCN(C)C(=O)C1CCOC1=O (stereo not drawn) | inactive | 
CCCCCNC(=O)C1CCCC1O (stereo not drawn) |  | 92
CCCCNS(=O)(=O)C1CCOC1=O (stereo not drawn) | inactive | > 200
CCCCCNS(=O)(=O)C1CCOC1=O (stereo not drawn) | inactive | 70
CCCCCNC(=O)C1CCCC1=O (stereo not drawn) | inactive | 40
CCCCCNC(=O)C1CCOC1=O (stereo not drawn) | inactive | 34
CCCCCCCCNC(=O)C1CCCC1=O (stereo not drawn) | inactive | 77
CCCCNC(=O)C1CCOC1=O (stereo not drawn) | inactive | 96

From ChEMBL document CHEMBL1909612, “AHL-dependent quorum sensing inhibition: synthesis and biological evaluation of α-(N-alkyl-carboxamide)-γ-butyrolactones and α-(N-alkyl-sulfonamide)-γ-butyrolactones” (Bioorg Med Chem Lett, 2011)
